Common to all, as to assay type: cell-based
The target in test [1] is T1, ΔF508-CFTR (Homo sapiens, UniProt P13569, DEL508-508).
T1 construct: host or cells: CFBE41o-, doxycycline-inducible
As to the kind of experiment: CFTR cell surface levels using HRP-tagged ΔF508-CFTR expressing CFBE cells, intrinsic corrector capacity. The arrangement: % Activation: concentration or dose not given beside the values. To be noted: HRP-tagged ΔF508-CFTR expressing CFBE41o- cells, compound alone (intrinsic corrector capacity), 20 hours at 33° C.; for EC50: read-out: EC50. Put shortly:
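Surface ΔF508-CFTR was measured as HRP chemiluminescence from an extracellular-loop-4 tag, expressed as percent activity between DMSO and a […] corrector control.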

The target in the next test is T2, CFTR ΔF508 (Homo sapiens, UniProt P13569, DEL508-508).
T2 construct: bronchial epithelial cells isolated from CF patients homozygous for the CFTR ΔF508 mutation; McGill University; Asterand; University of North Carolina hAEC-CF; host or cells: primary human bronchial epithelial cells from CF patients homozygous for ΔF508, differentiated at air-liquid interface
Put plainly: Chronic TECC assay, primary bronchial epithelial cells of CF patients homozygous for CFTR ΔF508 (corrector, co-corrector and potentiator). To be noted: chronic TECC, AUC = full area under the curve upon forskolin stimulation; for EC50: read-out: EC50 (nM) (AUC**); for % Activity at 1 μM (AUC**): test compound at 1 μM. Put shortly: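 Primary bronchial epithelial cells from ΔF508-homozygous CF patients on collagen IV-coated Transwells were chronically treated with test compound plus corrector and potentiator, which were re-added before recording. Ieq was derived from PD and Rt in NaCl-Ringer, pH 7.4, at 37° C, with apical amiloride and bilateral forskolin, recorded every 2 min over 20 min. Ieq increase was normalized to controls, and EC50 was taken from per-well concentrations.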

Test [2] concerns the target T1, ΔF508-CFTR. As to the kind of experiment: CFTR cell surface levels using HRP-tagged ΔF508-CFTR expressing CFBE cells, in the presence of a co-corrector. To be noted: HRP-tagged ΔF508-CFTR CFBE cells, in the presence of 3 μM co-corrector; for EC50: read-out: EC50. An outline of the steps: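 Chemiluminescent read-out of surface HRP (15 min, dark) after PBS washes. Activity is normalized as 100×(sample−DMSO)/(3 μM co-corrector alone−DMSO).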

As a reminder, the EC50 is the concentration giving half of the maximal effect.

T1 sequence (P13569 with tags, fused parts or gaps DEL508-508): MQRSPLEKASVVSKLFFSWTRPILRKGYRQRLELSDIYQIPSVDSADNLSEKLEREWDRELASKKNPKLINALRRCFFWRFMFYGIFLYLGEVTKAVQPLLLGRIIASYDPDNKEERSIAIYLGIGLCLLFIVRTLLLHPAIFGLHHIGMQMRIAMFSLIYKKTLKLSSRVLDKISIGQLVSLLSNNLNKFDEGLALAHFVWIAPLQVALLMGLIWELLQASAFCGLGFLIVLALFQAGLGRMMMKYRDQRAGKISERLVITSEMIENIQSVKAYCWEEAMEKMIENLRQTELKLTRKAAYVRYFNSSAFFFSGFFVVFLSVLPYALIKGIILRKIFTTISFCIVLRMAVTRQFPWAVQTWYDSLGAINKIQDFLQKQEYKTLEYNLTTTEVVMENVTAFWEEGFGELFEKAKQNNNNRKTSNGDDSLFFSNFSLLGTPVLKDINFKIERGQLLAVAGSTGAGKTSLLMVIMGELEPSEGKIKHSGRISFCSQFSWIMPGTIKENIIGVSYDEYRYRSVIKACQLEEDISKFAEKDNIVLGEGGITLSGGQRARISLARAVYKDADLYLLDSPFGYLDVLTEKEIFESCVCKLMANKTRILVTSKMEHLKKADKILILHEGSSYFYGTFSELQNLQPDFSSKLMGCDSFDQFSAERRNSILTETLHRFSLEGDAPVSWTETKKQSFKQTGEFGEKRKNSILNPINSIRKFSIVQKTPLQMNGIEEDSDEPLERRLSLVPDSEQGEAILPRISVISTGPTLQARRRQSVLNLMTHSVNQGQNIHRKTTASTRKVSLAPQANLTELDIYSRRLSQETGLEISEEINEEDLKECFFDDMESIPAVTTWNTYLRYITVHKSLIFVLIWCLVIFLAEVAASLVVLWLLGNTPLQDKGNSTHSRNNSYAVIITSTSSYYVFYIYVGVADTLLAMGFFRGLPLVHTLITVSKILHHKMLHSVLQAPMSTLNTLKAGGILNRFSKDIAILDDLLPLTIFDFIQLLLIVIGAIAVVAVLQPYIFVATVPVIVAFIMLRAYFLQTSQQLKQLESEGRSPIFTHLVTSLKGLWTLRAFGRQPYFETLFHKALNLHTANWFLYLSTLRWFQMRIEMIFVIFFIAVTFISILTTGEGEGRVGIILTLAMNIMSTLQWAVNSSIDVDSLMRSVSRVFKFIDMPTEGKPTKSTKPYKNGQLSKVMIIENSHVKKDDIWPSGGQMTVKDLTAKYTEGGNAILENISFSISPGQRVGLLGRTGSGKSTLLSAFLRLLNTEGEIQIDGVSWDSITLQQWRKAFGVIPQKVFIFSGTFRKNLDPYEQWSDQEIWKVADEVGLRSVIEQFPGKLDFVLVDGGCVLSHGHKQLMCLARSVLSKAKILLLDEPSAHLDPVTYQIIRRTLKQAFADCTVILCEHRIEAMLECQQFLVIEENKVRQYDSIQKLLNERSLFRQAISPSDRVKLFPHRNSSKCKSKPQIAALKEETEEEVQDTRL
T2 sequence (P13569 with tags, fused parts or gaps DEL508-508): as above

Turning to `CCCOC1CCN(c2cc(C(=O)NS(C)(=O)=O)nc3c2c(C2CCC2)nn3-c2ccccc2)CC1` [Compound 152, 3-cyclobutyl-N-(methanesulfonyl)-1-phenyl-4-(4-propoxypiperidin-1-yl)-1H-pyrazolo[3,4-b]pyridine-6-carboxamide], at ΔF508-CFTR [1], the “% Activation” value was found to be 242.35% and the EC50 was determined as 357 nM. At CFTR ΔF508, the EC50 is 16 nM and the “% Activity at 1 μM (AUC**)” value worked out at 482.77%. Further, at ΔF508-CFTR [2], the “% Activation” value is recorded as 409.9% and the EC50 amounted to 108 nM.
For the compound `COC1CCN(c2cc(C(=O)NS(C)(=O)=O)nc3c2c(C(C)C)nn3-c2cccc(N(C)C)c2)CC1` [Compound 155, 1-[3-(dimethylamino)phenyl]-N-(methanesulfonyl)-4-(4-methoxypiperidin-1-yl)-3-(propan-2-yl)-1H-pyrazolo[3,4-b]pyridine-6-carboxamide], the entries for the “% Activation” value on ΔF508-CFTR [1] and at ΔF508-CFTR [2] were 439.5% and 555.45%, respectively. The EC50 at ΔF508-CFTR [1] was determined as 454 nM; at CFTR ΔF508 it was 4 nM; on ΔF508-CFTR [2], 230 nM. Also, at CFTR ΔF508, the “% Activity at 1 μM (AUC**)” value was 200%.
With `CC(C)c1nn(-c2ccnc(N3CCCC3)c2)c2nc(C(=O)NS(C)(=O)=O)cc(-c3ccc(N4CCC(C#N)CC4)nc3)c12` [Compound 158, 4-[6-(4-cyanopiperidin-1-yl)pyridin-3-yl]-N-(methanesulfonyl)-3-(propan-2-yl)-1-[2-(pyrrolidin-1-yl)pyridin-4-yl]-1H-pyrazolo[3,4-b]pyridine-6-carboxamide], the “% Activation” value stood at 359.1% on ΔF508-CFTR [1] and 512.45% at ΔF508-CFTR [2]. Moreover, the values for the EC50 at ΔF508-CFTR [1] and at ΔF508-CFTR [2] were 622 nM and 267 nM, respectively. The “% Activity at 1 μM (AUC**)” value at CFTR ΔF508 is 370.9%.
As to `CC(C)c1nn(-c2cccc(N(C)C)c2)c2nc(C(=O)NS(C)(=O)=O)cc(N3CCC(C#N)CC3)c12` [Compound 160, 4-(4-cyanopiperidin-1-yl)-1-[3-(dimethylamino)phenyl]-N-(methanesulfonyl)-3-(propan-2-yl)-1H-pyrazolo[3,4-b]pyridine-6-carboxamide], on ΔF508-CFTR [1], the “% Activation” value is listed as 285.57% and the EC50 amounted to 309 nM. At CFTR ΔF508, the EC50 is 160 nM and the “% Activity at 1 μM (AUC**)” value is listed as 190%. Moreover, on ΔF508-CFTR [2], the “% Activation” value amounted to 490.4% and the EC50 is 202 nM.
As for `COC1CCN(c2cc(C(=O)NS(C)(=O)=O)nc3c2c(C(C)C)nn3-c2ccc(F)cc2)CC1` [Compound 167, 1-(4-fluorophenyl)-N-(methanesulfonyl)-4-(4-methoxypiperidin-1-yl)-3-(propan-2-yl)-1H-pyrazolo[3,4-b]pyridine-6-carboxamide], the “% Activation” value is 260.6% at ΔF508-CFTR [1] and 429.4% at ΔF508-CFTR [2]. Further, the values for the EC50 on ΔF508-CFTR [1], on CFTR ΔF508 and on ΔF508-CFTR [2] were 313 nM, 32 nM and 81.8 nM, respectively. Further, the “% Activity at 1 μM (AUC**)” value on CFTR ΔF508 is 260%.
On to `COCC1CCN(c2cc(C(=O)NS(C)(=O)=O)nc3c2c(C(C)C)nn3-c2ccc(F)cc2)CC1` [Compound 168, 1-(4-fluorophenyl)-N-(methanesulfonyl)-4-[4-(methoxymethyl)piperidin-1-yl]-3-(propan-2-yl)-1H-pyrazolo[3,4-b]pyridine-6-carboxamide], for which the “% Activation” value on ΔF508-CFTR [1] is listed as 399.2%; on ΔF508-CFTR [2], 581.55%. The EC50 on ΔF508-CFTR [1] came out at 338 nM; on CFTR ΔF508, 38.2 nM; on ΔF508-CFTR [2], 410 nM. The “% Activity at 1 μM (AUC**)” value at CFTR ΔF508 was 282.45%.
For `CC(C)c1nn(-c2ccnc(N3CCCC3)c2)c2nc(C(=O)NS(C)(=O)=O)cc(-c3ccc(N4CCC(C#N)CC4)cc3)c12` [Compound 169, 4-[4-(4-cyanopiperidin-1-yl)phenyl]-N-(methanesulfonyl)-3-(propan-2-yl)-1-[2-(pyrrolidin-1-yl)pyridin-4-yl]-1H-pyrazolo[3,4-b]pyridine-6-carboxamide], on ΔF508-CFTR [1], the “% Activation” value is listed as 344.25% and the EC50 was determined as 426 nM. At CFTR ΔF508, the EC50 was found to be 2.1 nM and the “% Activity at 1 μM (AUC**)” value was found to be 210%. Moreover, at ΔF508-CFTR [2], the “% Activation” value is reported as 519.3% and the EC50 was 284 nM.
With `CC(C)c1nn(-c2ccc(F)cc2)c2nc(C(=O)NS(C)(=O)=O)cc(N3CCC4(CCO4)CC3)c12` [Compound 177, 1-(4-fluorophenyl)-N-(methanesulfonyl)-4-(1-oxa-7-azaspiro[3.5]nonan-7-yl)-3-(propan-2-yl)-1H-pyrazolo[3,4-b]pyridine-6-carboxamide], the “% Activation” value is 99.405% on ΔF508-CFTR [1] and 263.9% on ΔF508-CFTR [2]. The results for the EC50 on ΔF508-CFTR [1], on CFTR ΔF508 and at ΔF508-CFTR [2] were 830 nM, above 100 nM and 385 nM, respectively. Moreover, on CFTR ΔF508, the “% Activity at 1 μM (AUC**)” value is reported as 419.90%.
On to `COCC1CCN(c2cc(C(=O)NS(C)(=O)=O)nc3c2c(C2CCC2)nn3-c2ccccc2)CC1` [Compound 185, 3-cyclobutyl-N-(methanesulfonyl)-4-[4-(methoxymethyl)piperidin-1-yl]-1-phenyl-1H-pyrazolo[3,4-b]pyridine-6-carboxamide], for which the “% Activation” value stood at 331.6% at ΔF508-CFTR [1] and 546.7% on ΔF508-CFTR [2]. The EC50 was determined as 241 nM on ΔF508-CFTR [1], 45.4 nM at CFTR ΔF508 and 145 nM at ΔF508-CFTR [2].
Take `COC1CCN(c2cc(C(=O)NS(C)(=O)=O)nc3c2c(C(C)C)nn3-c2ccnc(N3CCOCC3)c2)CC1` [Compound 187, N-(methanesulfonyl)-4-(4-methoxypiperidin-1-yl)-1-[2-(morpholin-4-yl)pyridin-4-yl]-3-(propan-2-yl)-1H-pyrazolo[3,4-b]pyridine-6-carboxamide]: on ΔF508-CFTR [1], the “% Activation” value came out at 160% and the EC50 turned out to be 223 nM. In addition, at CFTR ΔF508, the EC50 is above 1000 nM and the “% Activity at 1 μM (AUC**)” value worked out at 180%. On ΔF508-CFTR [2], the “% Activation” value came out at 308.87% and the EC50 is 69.3 nM.
For `COC1CCN(c2cc(C(=O)NS(C)(=O)=O)nc3c2c(C(C)C)nn3-c2ccnc(N3CCCC3)c2)CC1` [Compound 188, N-(methanesulfonyl)-4-(4-methoxypiperidin-1-yl)-3-(propan-2-yl)-1-[2-(pyrrolidin-1-yl)pyridin-4-yl]-1H-pyrazolo[3,4-b]pyridine-6-carboxamide], at ΔF508-CFTR [1], the “% Activation” value was 214.93% and the EC50 was determined as 274 nM. Moreover, the “% Activity at 1 μM (AUC**)” value on CFTR ΔF508 came to 257.3%. In addition, at ΔF508-CFTR [2], the “% Activation” value amounted to 405.37% and the EC50 came to 160 nM.
On to `CS(=O)(=O)NC(=O)c1cc(N2CCC(S(C)(=O)=O)CC2)c2c(C3CCC3)nn(-c3ccccc3)c2n1` [Compound 190, 3-cyclobutyl-N-(methanesulfonyl)-4-[4-(methanesulfonyl)piperidin-1-yl]-1-phenyl-1H-pyrazolo[3,4-b]pyridine-6-carboxamide], for which the “% Activation” value on ΔF508-CFTR [1] stood at 284.8%; on ΔF508-CFTR [2] it was 502.4%. Also, the EC50 at ΔF508-CFTR [1] worked out at 967 nM; at CFTR ΔF508, 51 nM; at ΔF508-CFTR [2], 1240 nM. For the same compound, at CFTR ΔF508, the “% Activity at 1 μM (AUC**)” value is reported as 269%.
`COCC1CN(c2cc(C(=O)NS(C)(=O)=O)nc3c2c(C2CCC2)nn3-c2ccccc2)C1` [Compound 193, 3-cyclobutyl-N-(methanesulfonyl)-4-[3-(methoxymethyl)azetidin-1-yl]-1-phenyl-1H-pyrazolo[3,4-b]pyridine-6-carboxamide]: at ΔF508-CFTR [1], the “% Activation” value is 175.23% and the EC50 came out at 1070 nM. In addition, the “% Activity at 1 μM (AUC**)” value at CFTR ΔF508 is recorded as 317.57%. At ΔF508-CFTR [2], the “% Activation” value came out at 341.37% and the EC50 stood at 589 nM.
Turning to `CS(=O)(=O)NC(=O)c1cc(OCCC2CCOCC2)c2c(C3CCC3)nn(-c3ccccc3)c2n1` [Compound 198, 3-cyclobutyl-N-(methanesulfonyl)-4-[2-(oxan-4-yl)ethoxy]-1-phenyl-1H-pyrazolo[3,4-b]pyridine-6-carboxamide], at ΔF508-CFTR [1], the “% Activation” value is 135.73% and the EC50 was found to be 633 nM. At CFTR ΔF508, the “% Activity at 1 μM (AUC**)” value came to 477.39%. At ΔF508-CFTR [2], the “% Activation” value worked out at 321.57% and the EC50 was 466 nM.
As to `CS(=O)(=O)NC(=O)c1cc(OC[C@@H](F)C2CCOCC2)c2c(C3CCC3)nn(-c3ccccc3)c2n1` [Compound 199, 3-cyclobutyl-4-[(2S)-2-fluoro-2-(oxan-4-yl)ethoxy]-N-(methanesulfonyl)-1-phenyl-1H-pyrazolo[3,4-b]pyridine-6-carboxamide], on ΔF508-CFTR [1], the “% Activation” value is on record as 142.6% and the concentration for a half-maximal effect (EC50) is 481 nM. On CFTR ΔF508, the EC50 was above 1000 nM and the “% Activity at 1 μM (AUC**)” value came out at 627.48%. Besides, on ΔF508-CFTR [2], the “% Activation” value worked out at 304.63% and the EC50 was 316 nM.

These data come from patent US10259810B2, “N-sulfonylated pyrazolo[3,4-b]pyridin-6-carboxamides and method of use” (AbbVie S.à.r.l., priority 2015, dated 2019).
